Earlier results in US20250074936A1, “A PROCESS FOR ISOLATION OF SAPONINS UTTROSIDE B AND UTTROSIDE A FROM SOLANUM NIGRUM LINN” (COUNCIL OF SCIENTIFIC AND INDUSTRIAL RESEARCH AN INDIAN …, priority 2022, published 2025).

Assays:
HeLa cells = settings: read-out: moderate cytotoxicity against HeLa cells, IC50
PC-12 = PC-12 cells; read-out: cytotoxicity towards PC-12, IC50
HCT-16 = HCT-16 cells; read-out: cytotoxicity towards HCT-16, IC50

SMILES | IC50 (HeLa cells) [nM] | IC50 (PC-12) [nM] | IC50 (HCT-16) [nM]
CO[C@]1(CC[C@@H](C)COC2OC(CO)C(O)C(O)C2O)OC2C[C@H]3[C@@H]4CC[C@H]5C[C@@H](OC6OC(CO)C(OC7OC(CO)C(O)C(OC8OCC(O)C(O)C8O)C7OC7OC(CO)C(O)C(O)C7O)C(O)C6O)CC[C@]5(C)[C@H]4CC[C@]3(C)C2[C@@H]1C (stereo partly drawn) [uttroside A] | 15400 | – | –
C[C@H](CC[C@@]1(O)OC2C[C@H]3[C@@H]4CC[C@H]5C[C@@H](OC6OC(CO)C(OC7OC(CO)C(O)C(OC8OCC(O)C(O)C8O)C7OC7OC(CO)C(O)C(O)C7O)C(O)C6O)CC[C@]5(C)[C@H]4CC[C@]3(C)C2[C@@H]1C)COC1OC(CO)C(O)C(O)C1O (stereo partly drawn) [uttroside B] | – | 1200 | 2330
